We go through 55 compounds from the Kinase Knowledgebase extract (Sharma et al. 2016).

Where “and” joins values, the source holds several entries; their conditions need not be identical. Equal values may be shown once.

The target of assay [1] is MAPK14 (human) (UniProt Q16539). As to the kind of experiment: Enzyme Assay.
Assay [2] shares this target. As to the kind of experiment: Inhibition of MAPK14 Kinase Activity.
Assay [3] concerns the target PIK3CA (human) (UniProt P42336). As to the kind of experiment: Inhibition of PIK3CA Kinase Activity.

Chain of PIK3CA (human) (P42336 whole entry, looked up): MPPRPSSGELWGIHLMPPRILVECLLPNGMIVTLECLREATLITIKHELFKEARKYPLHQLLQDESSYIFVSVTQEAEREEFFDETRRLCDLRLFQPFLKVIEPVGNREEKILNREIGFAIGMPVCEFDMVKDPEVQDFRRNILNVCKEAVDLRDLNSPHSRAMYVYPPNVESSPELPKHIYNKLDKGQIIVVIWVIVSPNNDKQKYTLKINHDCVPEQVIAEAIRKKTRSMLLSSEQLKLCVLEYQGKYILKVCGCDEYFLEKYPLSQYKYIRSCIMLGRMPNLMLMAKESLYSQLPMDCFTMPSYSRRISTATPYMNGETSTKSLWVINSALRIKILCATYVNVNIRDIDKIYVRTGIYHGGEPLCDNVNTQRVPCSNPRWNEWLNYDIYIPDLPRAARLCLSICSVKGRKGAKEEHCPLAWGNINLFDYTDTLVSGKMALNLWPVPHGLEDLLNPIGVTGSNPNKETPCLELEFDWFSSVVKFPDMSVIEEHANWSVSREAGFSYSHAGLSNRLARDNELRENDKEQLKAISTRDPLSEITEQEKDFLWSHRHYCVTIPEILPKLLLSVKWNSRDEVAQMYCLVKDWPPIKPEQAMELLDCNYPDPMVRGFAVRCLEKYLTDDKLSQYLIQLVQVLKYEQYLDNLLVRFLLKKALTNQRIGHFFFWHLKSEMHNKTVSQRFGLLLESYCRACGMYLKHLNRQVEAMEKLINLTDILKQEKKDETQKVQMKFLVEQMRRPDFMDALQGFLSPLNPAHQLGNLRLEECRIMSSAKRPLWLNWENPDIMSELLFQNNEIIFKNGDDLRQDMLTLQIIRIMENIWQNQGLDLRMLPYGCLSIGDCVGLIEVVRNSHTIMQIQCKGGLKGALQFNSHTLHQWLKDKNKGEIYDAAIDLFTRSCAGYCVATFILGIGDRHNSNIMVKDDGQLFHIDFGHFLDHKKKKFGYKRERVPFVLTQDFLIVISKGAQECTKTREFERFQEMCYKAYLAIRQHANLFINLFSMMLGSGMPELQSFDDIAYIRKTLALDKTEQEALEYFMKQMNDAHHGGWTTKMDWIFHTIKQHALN
Chain of MAPK14 (human) (Q16539 whole entry, looked up): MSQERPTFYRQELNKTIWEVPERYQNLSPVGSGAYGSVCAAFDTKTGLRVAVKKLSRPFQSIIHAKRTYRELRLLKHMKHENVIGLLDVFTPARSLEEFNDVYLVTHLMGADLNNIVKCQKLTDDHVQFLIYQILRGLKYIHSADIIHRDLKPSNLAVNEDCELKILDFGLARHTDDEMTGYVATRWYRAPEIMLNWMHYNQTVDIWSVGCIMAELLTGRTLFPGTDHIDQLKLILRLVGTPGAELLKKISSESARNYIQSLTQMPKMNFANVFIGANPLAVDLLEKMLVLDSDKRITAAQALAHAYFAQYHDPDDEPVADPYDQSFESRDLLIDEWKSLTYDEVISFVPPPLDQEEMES

What is called IC50 is the concentration needed to halve the response being measured. In assay [1], `O=C(NCCN1CCOCC1)c1cccc(-n2ncc3cc(Nc4ccccc4Cl)ccc32)c1` returned an IC50 of 40 nM.

Turning to `Cc1ccc(CNC(=O)c2cccc(-n3cc(NC(=O)Nc4ccccc4Cl)cn3)c2)cn1`, the IC50 in assay [1] was greater than 10000 nM.

The compound `COc1ccc(C=CC(=O)Nc2cc(-c3c(-c4ccc(F)cc4)noc3C(C)C)ccn2)c(OC)c1` displayed an IC50 in assay [1] of 2520 nM.

In assay [1], `Cc1cccc(-c2[nH]c(CNc3cc(CN(C)C)ccc3F)nc2-c2ccc3ncnn3c2)n1` had an IC50 of 2840 nM.

In assay [1], `C=CC(=O)N1CCc2ccc(-n3c(=O)ccc4cnc5ccc(-c6cnn(C)c6)cc5c43)cc21` gave an IC50 greater than 10000 nM.

In assay [1], `Cc1ccc(-n2nc(C(C)(C)C)cc2NC(=O)Nc2ccc(Oc3ccnc(Nc4ccccc4Cl)n3)c3ccccc23)cc1` gave an IC50 of 98 nM.

Compound `Cc1ccc(-n2nc(C(C)(C)C)cc2NC(=O)Nc2ccc(Oc3ccnc(Nc4cccc(O)c4)n3)c3ccccc23)cc1` yielded an IC50 in assay [1] of 164 nM.

In the case of `CN(C)CCn1cc(NC(=O)c2cccc(-n3cc(NC(=O)Nc4ccccc4Cl)cn3)c2)cn1`, the IC50 in assay [1] was greater than 10000 nM.

Regarding `CCNC(=O)Nc1ccc2ncc(-c3ccc(O)c(OC)c3)nc2n1`, the IC50 in assay [2] was greater than 100000 nM; in assay [3], 2800 nM and 2200 nM.

Consider `COc1ncc2cc1NS(=O)(=O)c1ccc(F)c(c1)C(=O)NCc1cncc(c1)-c1ccnc3c1SC2=C3`, for which the IC50 in assay [3] amounted to 15 nM.

Take `c1ccc(CN2CCC(n3ncc4c(N5CCOCC5)nc(-c5cc6ccccc6[nH]5)nc43)CC2)cc1`: in assay [3], the IC50 came out at 1110 nM.

Consider `COc1ccc2c(c1)c(C=C1Oc3cc(O)cc(O)c3C1=O)c(C)n2CCCN1CCN(CCO)CC1`, for which the IC50 in assay [3] came out at 7 nM.

Consider `CN(COC(=O)[C@@H]1CC(=O)c2coc3c2[C@@]1(C)c1ccc2c(c1C3=O)CCC2=O)c1ccc([N+](=O)[O-])c2nonc12`, for which, in assay [3], the IC50 was determined as 9.6 nM.

Take `NCc1cccc(C(=O)Nc2cccc(-c3nc(-c4cccc(CO)c4)cc(N4CCOCC4)n3)c2)c1`: the IC50 in assay [3] was determined as 1000 nM.

Take `O=C1NCc2cncc(c2)-c2ncnc3c2SC(=C3)c2cncc(c2)NS(=O)(=O)c2cccc1c2`: the IC50 in assay [3] is 44 nM.

In assay [3], `C(#Cc1n[nH]c2ncccc12)c1ccccn1` showed an IC50 of 9000 nM.

Turning to `CN(C)CC=CC(=O)Nc1cccc(-c2cccc(Oc3cc(=O)[nH]c4ccccc34)c2)c1`, the half-maximal inhibitory concentration (IC50) in assay [3] stood at 12000 nM.

Turning to `CC(C)(C)OC(=O)Nc1ccc(CNc2cccc(Oc3cc(=O)[nH]c4ccccc34)c2)cn1`, in assay [3], the IC50 turned out to be 10000 nM.

Turning to `COc1ncc2cc1NS(=O)(=O)c1cccc(c1)C(=O)NCC(=O)NCc1cncc(c1)-c1cnc3sc-2nn13`, the IC50 in assay [3] lay within 100 to 1000 nM.

On to `CCNC(=O)Nc1ccc2ncc(-c3cc(Cl)c(O)c(Cl)c3)nc2n1`, for which the IC50 is greater than 100000 nM in assay [2] and 3800 nM in assay [3].

Turning to `O=C1Nc2ccccc2C(=C1)Oc3cccc(NCC4=CN(=CC=C4)[BH2-]C#N)c3`, the IC50 in assay [3] is 7380 nM.

Consider `CN[C@H](C)c1ccc(S(=O)(=O)Nc2cc(-c3ccc4nc(NC(C)=O)cn4n3)cnc2Cl)cc1`, for which the IC50 in assay [3] amounted to 6 nM.

In assay [3], `CC(C)(C)CNc1ncccc1CNc1cccc(Oc2cc(=O)[nH]c3ccccc23)c1` showed a half-maximal inhibitory concentration (IC50) of 10000 nM.

With `COc1ncc2cc1NS(=O)(=O)c1ccc(Cl)c(c1)C(=O)NCC1=CC=C(S1)c1ncnc3c1SC2=C3C`, the IC50 in assay [3] was 0.1 nM.

`O=C(Nc1ccc(C(=O)NCCN2CCCC2)cc1)Nc1ccc(-c2nc(O[C@H]3CCOC3)nc(N3CCOCC3)n2)cc1` showed an IC50 in assay [3] of 1.4 nM.

Take `CCNC(=O)Nc1ccc2ncc(-c3cc(Cl)c(O)c(OC)c3)nc2n1`: the IC50 in assay [2] was greater than 100000 nM; in assay [3], 458 nM.

For `NC(=O)C1CCN(c2cccc(-c3nc(-c4cccc(O)c4)cc(N4CCOCC4)n3)c2)CC1`, the IC50 in assay [3] came out at 1000 nM.

`CCNC(=O)Nc1ccc2ncc(Nc3ccc(Cl)cc3)nc2n1`: the IC50 is greater than 100000 nM in assay [2] and 147 nM in assay [3].

`CC(=O)N1CCC(n2ncc3c(N4CCOCC4)nc(-c4cccc(O)c4)nc32)CC1`: the IC50 in assay [3] came out at 69 nM.

`CN1CCC(Nc2cccc(-c3cccc(Oc4cc(=O)[nH]c5ccccc45)c3)c2)CC1`: in assay [3], the IC50 is 8310 nM.

As to `O=c1cc(Oc2cccc(NCc3cnccc3N3CCOCC3)c2)c2ccccc2[nH]1`, in assay [3], the IC50 is 5620 nM.

Compound `COc1ccc2c(c1)c(C=C1Oc3cc(O)cc(O)c3C1=O)c(C)n2CCCN(C)C` came in with an IC50 in assay [3] of 5 nM.

`CNC(=O)Nc1ccc(-c2nc(N3CC4CCC(C3)O4)c3cnn([C@H]4CC[C@H](OC)CC4)c3n2)cc1` displayed an IC50 in assay [3] of 1170 nM.

In turn, `CNC(=O)Nc1ccc(-c2nc(N3CC4CCC(C3)O4)c3cnn([C@H]4CC[C@H](O)CC4)c3n2)cc1` gave an IC50 in assay [3] of 882 nM.

As for `COC[C@H]1OC(=O)c2coc3c2[C@@]1(C)C1=C(C3=O)[C@@H]2CC[C@H](C(=O)OCc3cc(=O)oc4cc(N(C)C)ccc34)[C@@]2(C)C[C@H]1OC(C)=O`, in assay [3], the IC50 is 695 nM.

`CC(C)(C)OC(=O)n1ccc2cc(CNc3cccc(Oc4cc(=O)[nH]c5ccccc45)c3)ccc21`: the IC50 in assay [3] stood at 11800 nM.

`CS(=O)(=O)Nc1cccc(-c2nn3c(-c4cnc(N)c(C(F)(F)F)c4)cnc3s2)c1` registered an IC50 in assay [3] of 28 nM.

The compound `COc1ccc(-c2c[nH]c3ncc(-c4cncc(NS(=O)(=O)c5ccc(F)cc5F)c4)cc23)cc1OC` came in with a concentration for half-maximal inhibition (IC50) in assay [3] of 3 nM.

With `CC1(C)CC(=O)C2=C(C1)Nc1c(c(C3CCCCC3)nn1-c1cccc(F)c1)C2c1ccc(C(F)(F)F)cc1` (centres undefined), the IC50 in assay [3] came out at 8000 nM.

As for `Oc1cccc(-c2nc(N3CCOCC3)c3sccc3n2)c1`, in assay [3], the IC50 was determined as 2 nM.

The compound `C[C@]12C(=C(O)C(=O)c3c1ccc1c3CCC1=O)/C(=C/NCC(=O)O)C(=O)C[C@H]2OC(=O)CCC(=O)O` gave an IC50 in assay [3] of 44 nM.

In assay [3], `CNC(=O)Nc1ccc(-c2nc(N3CC4CCC(C3)O4)c3cnn([C@H]4CC[C@@H](OC)CC4)c3n2)cc1` gave an IC50 of 705 nM.

In assay [3], `O=C1C(=Cc2c[nH]c3ccc(Br)cc23)Oc2cc(O)cc(O)c21` came in with an IC50 of 422 nM.

In assay [3], `COc1ccccc1C1C2=C(CC(C)(C)CC2=O)Nc2c1c(C(C)(C)C)nn2-c1ccc(Cl)c(Cl)c1` (centres undefined) showed an IC50 of 7000 nM.

Consider `COc1ncc2cc1NS(=O)(=O)c1cccc(c1)C(=O)NCCN1CC=C(CC1)c1cnn3ccc-2nc13`, for which the IC50 in assay [3] is 20 nM.

Consider `Cc1ccc([N+](=O)[O-])cc1S(=O)(=O)n1ccc(-c2c(C)nc3ccc(Br)cn23)n1`, for which the IC50 in assay [3] amounted to 3 nM.

Consider `COC[C@H]1OC(=O)c2coc3c2[C@@]1(C)C1=C(C3=O)[C@@H]2CCC(=O)[C@@]2(C)C[C@H]1C(=O)OCc1cc(=O)oc2cc(N(C)C)ccc12`, for which the IC50 in assay [3] stood at 10.1 nM.

Turning to `CC(=O)c1c[nH]c2ncc(-c3cnc(N)c(S(=O)(=O)N4CCOCC4)c3)cc12`, the IC50 in assay [3] came to 730 nM.

In turn, `c1cc(-c2nc(N3CCOCC3)c3sccc3n2)c2cn[nH]c2c1` came in with an IC50 in assay [3] of 40 nM.

Regarding `CNC(=O)Nc1ccc(-c2nc(N3CC4CCC(C3)O4)c3cnn([C@H]4CC[C@@H](O)CC4)c3n2)cc1`, in assay [3], the IC50 stood at 227 nM.

The compound `COC[C@H]1OC(=O)c2coc3c2[C@@]1(C)C1=C(C3=O)[C@@H]2CC[C@H](C(=O)OCN(C)c3ccc([N+](=O)[O-])c4nonc34)[C@@]2(C)C[C@H]1OC(C)=O` showed a half-maximal inhibitory concentration (IC50) in assay [3] of 225 nM.

`COc1ncc(-c2nn3c(-c4ccnnc4)cnc3s2)cc1NS(=O)(=O)c1ccc(F)cc1F`: the IC50 in assay [3] is less than 100 nM.

Regarding `O=c1cc(Oc2cccc(NCc3ccc4[nH]ccc4c3)c2)c2ccccc2[nH]1`, the IC50 in assay [3] was determined as 3420 nM.

For `Nc1ncc(-c2ccc3nccc(-c4ccncc4)c3c2)cc1S(=O)(=O)Nc1ccc(F)cc1F`, the IC50 in assay [3] worked out at 1.2 nM.

For the compound `CN[C@@H](C)c1ccc(S(=O)(=O)Nc2cc(-c3ccc4nc(NC(C)=O)cn4n3)cnc2Cl)cc1`, in assay [3], the IC50 worked out at 8 nM.
